Test results from US12264156B2, “Compounds and pharmaceutical compositions thereof for the treatment of diseases” (GALAPAGOS NV, priority 2018, dated 2025).
pEC50: −log10 of the molar value.

Experiments:
[1] = system: LPS-induced TNFα in monocytes; assay: Monocytes assay: LPS-triggered TNFα (ELISA); assay type: cell-based, human; conditions: LPS 200 ng/mL, supernatant after 4 h
Summary of the method: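 Human CD14+ monocytes from buffy-coat PBMCs (magnetic bead selection) were seeded at 100 000 cells/well and pretreated with compound for 1 h at 37° C (0.2% DMSO). They were then stimulated with 200 ng/mL LPS for 4 h, and supernatant TNFα was measured by chemiluminescent sandwich ELISA as percent inhibition.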

[2] = system: LPS triggered IL-10 secretion in monocytes; assay: Monocytes assay: LPS-triggered IL-10 (ELISA); assay type: cell-based, human; conditions: LPS 200 ng/mL, supernatant after 4 h, maximal fold change vs LPS only
Summary of the method: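 Human CD14+ monocytes, magnetically isolated from buffy-coat PBMCs, were seeded at 100 000 cells/well and preincubated with compound for 1 h at 37° C (0.2% DMSO). LPS was then added at a final 200 ng/mL for 4 h. Supernatant IL-10 was quantified by chemiluminescent sandwich ELISA against a standard curve.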

| Compound | pEC50 [1] | pEC50 ([1]; Homo sapiens, Monocyte, 4 h) | IL-10 FCmax median [2] | pEC50 ([1]; Homo sapiens, Monocyte) |
| --- | --- | --- | --- | --- |
| COc1cc(-c2cnc3cc(OCC(O)CN4CCOCC4)ccn23)cc(OC(F)F)c1C(=O)NC1CC1 (single isomer, unassigned) [Cpd 387, N-cyclopropyl-2-(difluoromethoxy)-4-[7-(2-hydroxy-3-morpholino-propoxy)imidazo[1,2-a]pyridin-3-yl]-6-methoxy-benzamide] | 7.00 to 10.00 | – | +++ (>4.5) | – |
| COc1cc(-c2cnc3cc(OCC(O)CN4CCOCC4)ccn23)cc(OC(F)F)c1C(=O)NC1CC1 (single isomer, unassigned) [Cpd 386, N-cyclopropyl-2-(difluoromethoxy)-4-[7-(2-hydroxy-3-morpholino-propoxy)imidazo[1,2-a]pyridin-3-yl]-6-methoxy-benzamide] | 6.00 to 7.00 | – | +++ (>4.5) | – |
| COc1cc(-c2cnc3cc(OCCN4CCOC[C@H]4C)ccn23)cc2c1C(=O)N(CC(F)(F)F)CC2 [compound 259, 8-methoxy-6-[7-[2-[(3R)-3-methylmorpholin-4-yl]ethoxy]imidazo[1,2-a]pyridin-3-yl]-2-(2,2,2-trifluoroethyl)-3,4-dihydroisoquinolin-1-one] | – | 6.00 to 7.00 | +++ (>4.5) | – |
| COc1cc(-c2cnc3cc(OCCN4CCN(C(C)C)CC4)ccn23)cc(OC(F)F)c1C(=O)NC1CC1 [compound 276, N-cyclopropyl-2-(difluoromethoxy)-4-[7-[2-(4-isopropylpiperazin-1-yl)ethoxy]imidazo[1,2-a]pyridin-3-yl]-6-methoxy-benzamide] | – | 6.00 to 7.00 | ++ (>1.5-4.5) | – |
| COc1cc(-c2cnc3cc(OCCN4CCOC[C@@H]4C)ccn23)cc2c1C(=O)N(CC(F)(F)F)CC2 [Cpd 257, 8-methoxy-6-[7-[2-[(3S)-3-methylmorpholin-4-yl]ethoxy]imidazo[1,2-a]pyridin-3-yl]-2-(2,2,2-trifluoroethyl)-3,4-dihydroisoquinolin-1-one] | – | 6.00 to 7.00 | +++ (>4.5) | – |
| COc1cc(-c2cnc3cc(OCCCN4CC(O)C4)ccn23)cc(OC(F)F)c1C(=O)NC1CC1 [Cpd 286, N-cyclopropyl-2-(difluoromethoxy)-4-[7-[3-(3-hydroxyazetidin-1-yl)propoxy]imidazo[1,2-a]pyridin-3-yl]-6-methoxy-benzamide] | – | 6.00 to 7.00 | ++ (>1.5-4.5) | – |
| COc1cc(-c2cnc3cc(OCCN4CCOC[C@H]4C)ccn23)cc(OC(F)F)c1C(=O)NC1CC1 [compound 234, N-cyclopropyl-2-(difluoromethoxy)-6-methoxy-4-[7-[2-[(3R)-3-methylmorpholin-4-yl]ethoxy]imidazo[1,2-a]pyridin-3-yl]benzamide] | – | 6.00 to 7.00 | +++ (>4.5) | – |
| COc1cc(-c2cnc3cc(OCCCN4CCC5(CC4)CNC(=O)O5)ccn23)cc(OC(F)F)c1C(=O)NC1CC1 [Cpd 324, N-cyclopropyl-2-(difluoromethoxy)-6-methoxy-4-[7-[3-(2-oxo-1-oxa-3,8-diazaspiro[4.5]decan-8-yl)propoxy]imidazo[1,2-a]pyridin-3-yl]benzamide] | – | 6.00 to 7.00 | ++ (>1.5-4.5) | – |
| COc1cc(-c2cnc3cc(OCCN4C5CCC4COC5)ccn23)cc(OC(F)F)c1C(=O)NC1CC1 [compound 193, N-cyclopropyl-2-(difluoromethoxy)-6-methoxy-4-[7-[2-(3-oxa-8-azabicyclo [3.2.1]octan-8-yl)ethoxy]imidazo[1,2-a]pyridin-3-yl]benzamide] | – | – | +++ (>4.5) | 7.00 to 10.00 |
| COc1cc(-c2cnc3cc(OCCCN4CCNCC4)ccn23)cc(OC(F)F)c1C(=O)NC1CC1 [compound 278, N-cyclopropyl-2-(difluoromethoxy)-6-methoxy-4-[7-(3-piperazin-1-ylpropoxy)imidazo[1,2-a]pyridin-3-yl]benzamide] | – | 6.00 to 7.00 | ++ (>1.5-4.5) | – |
| COc1cc(-c2cnc3cc(OCCN4CCOC[C@@H]4C)ccn23)cc(OC(F)F)c1C(=O)NC1CC1 [compound 233, N-cyclopropyl-2-(difluoromethoxy)-6-methoxy-4-[7-[2-[(3S)-3-methylmorpholin-4-yl]ethoxy]imidazo[1,2-a]pyridin-3-yl]benzamide] | – | 6.00 to 7.00 | +++ (>4.5) | – |
| COc1cc(-c2cnc3cc(OCc4nncn4C)ccn23)cc(OC(F)F)c1C(=O)NC1CC1 [compound 227, N-cyclopropyl-2-(difluoromethoxy)-6-methoxy-4-[7-[(4-methyl-1,2,4-triazol-3-yl)methoxy]imidazo[1,2-a]pyridin-3-yl]benzamide] | – | 5.30 to 6.00 | ++ (>1.5-4.5) | – |

Second part, led by results:

| pEC50 [1] | pEC50 ([1]; Homo sapiens, Monocyte, 4 h) | Compound | IL-10 FCmax median [2] | pEC50 ([1]; Homo sapiens, Monocyte) |
| --- | --- | --- | --- | --- |
| – | 6.00 to 7.00 | COc1cc(-c2cnc3cc(OCC4(F)CN(C(=O)OC(C)(C)C)C4)ccn23)cc2c1C(=O)N(CC(F)(F)F)CC2 [compound 248, tert-butyl 3-fluoro-3-[[3-[8-methoxy-1-oxo-2-(2,2,2-trifluoroethyl)-3,4-dihydroisoquinolin-6-yl]imidazo[1,2-a]pyridin-7-yl]oxymethyl]azetidine-1-carboxylate] | +++ (>4.5) | – |
| – | 6.00 to 7.00 | COc1cc(-c2cnc3cc(OC[C@H]4COCCO4)ccn23)cc2c1C(=O)NCC2 [compound 242, 6-[7-[[(2R)-1,4-dioxan-2-yl]methoxy]imidazo[1,2-a]pyridin-3-yl]-8-methoxy-3,4-dihydro-2H-isoquinolin-1-one] | ++ (>1.5-4.5) | – |
| – | 6.00 to 7.00 | COc1cc(-c2cnc3cc(OCC4(C)CN(C)C4)ccn23)cc(OC(F)F)c1C(=O)NC1CC1 [compound 220, N-cyclopropyl-2-(difluoromethoxy)-4-[7-[(1,3-dimethylazetidin-3-yl)methoxy]imidazo[1,2-a]pyridin-3-yl]-6-methoxy-benzamide] | +++ (>4.5) | – |
| – | 6.00 to 7.00 | COc1cc(-c2cnc3cc(OC(C)(C)CO)ccn23)cc(OC(F)F)c1C(=O)NC1CC1 [Cpd 209, N-cyclopropyl-2-(difluoromethoxy)-4-[7-(2-hydroxy-1,1-dimethyl-ethoxy)imidazo[1,2-a]pyridin-3-yl]-6-methoxy-benzamide] | + (≤1.5) | – |
| – | 6.00 to 7.00 | COc1cc(-c2cnc3cc(OCCCN4CCCC(O)C4)ccn23)cc(OC(F)F)c1C(=O)NC1CC1 (centres unmarked) [compound 328, N-cyclopropyl-2-(difluoromethoxy)-4-[7-[3-(3-hydroxy-1-piperidyl)propoxy]imidazo [1,2-a]pyridin-3-yl]-6-methoxy-benzamide] | +++ (>4.5) | – |
| – | 6.00 to 7.00 | COc1cc(-c2cnc3cc(OCCN4CC(F)(F)C4)ccn23)cc2c1C(=O)N(CC(F)(F)F)CC2 [Cpd 244, 6-[7-[2-(3,3-difluoroazetidin-1-yl)ethoxy]imidazo[1,2-a]pyridin-3-yl]-8-methoxy-2-(2,2,2-trifluoroethyl)-3,4-dihydroisoquinolin-1-one] | +++ (>4.5) | – |
| – | 6.00 to 7.00 | COc1cc(-c2cnc3cc(OCCCN4CCC4)ccn23)cc(OC(F)F)c1C(=O)NC1CC1 [compound 274, 4-[7-[3-(azetidin-1-yl)propoxy]imidazo[1,2-a]pyridin-3-yl]-N-cyclopropyl-2-(difluoromethoxy)-6-methoxy-benzamide] | ++ (>1.5-4.5) | – |
| – | 6.00 to 7.00 | COc1cc(-c2cnc3cc(OCCCN4CCCC4)ccn23)cc(OC(F)F)c1C(=O)NC1CC1 [compound 275, N-cyclopropyl-2-(difluoromethoxy)-6-methoxy-4-[7-(3-pyrrolidin-1-ylpropoxy)imidazo[1,2-a]pyridin-3-yl]benzamide] | +++ (>4.5) | – |
| – | 7.00 to 10.00 | COc1cc(-c2cnc3cc(OCCN4CCN(C)CC4)ccn23)cc(OC(F)F)c1C(=O)NC1CC1 [compound 9, N-cyclopropyl-2-(difluoromethoxy)-6-methoxy-4-[7-[2-(4-methylpiperazin-1-yl)ethoxy]imidazo[1,2-a]pyridin-3-yl]benzamide] | +++ (>4.5) | – |
| – | 7.00 to 10.00 | CCOC(=O)C1(F)CCN(CC(O)COc2ccn3c(-c4cc(OC)c(C(=O)NC5CC5)c(OC(F)F)c4)cnc3c2)CC1 (centres unmarked) [compound 384, ethyl 1-[3-[3-[4-(cyclopropylcarbamoyl)-3-(difluoromethoxy)-5-methoxy-phenyl]imidazo[1,2-a]pyridin-7-yl]oxy-2-hydroxy-propyl]-4-fluoro-piperidine-4-carboxylate] | ++ (>1.5-4.5) | – |
| – | 7.00 to 10.00 | COc1cc(-c2cnc3cc(OCCCN4CCC5(CC4)CN(C)C(=O)O5)ccn23)cc(OC(F)F)c1C(=O)NC1CC1 [compound 325, N-cyclopropyl-2-(difluoromethoxy)-6-methoxy-4-[7-[3-(3-methyl-2-oxo-1-oxa-3,8-diazaspiro[4.5]decan-8-yl)propoxy]imidazo[1,2-a]pyridin-3-yl]benzamide] | ++ (>1.5-4.5) | – |
| – | 7.00 to 10.00 | CCOC(=O)C1(F)CCN(CCCOc2ccn3c(-c4cc(OC)c(C(=O)NC5CC5)c(OC(F)F)c4)cnc3c2)CC1 [Cpd 363, ethyl 1-[3-[3-[4-(cyclopropylcarbamoyl)-3-(difluoromethoxy)-5-methoxy-phenyl]imidazo[1,2-a]pyridin-7-yl]oxypropyl]-4-fluoro-piperidine-4-carboxylate] | +++ (>4.5) | – |
| – | 7.00 to 10.00 | CCOC(=O)C1(F)CCN(CCOc2ccn3c(-c4cc(OC)c(C(=O)NC5CC5)c(OC(F)F)c4)cnc3c2)CC1 [compound 390, ethyl 1-[2-[3-[4-(cyclopropylcarbamoyl)-3-(difluoromethoxy)-5-methoxy-phenyl]imidazo[1,2-a]pyridin-7-yl]oxyethyl]-4-fluoro-piperidine-4-carboxylate] | +++ (>4.5) | – |
